Consider 33 molecules from patent US20260257998A1, “ERR MODULATORS” (University of Health Sciences and Pharmacy in St. Louis, priority 2023, published 2026).

pEC50: −log10 of the molar value.

One test addresses T1, ERRγ (Homo sapiens, UniProt P62508).
T1 construct: expressed in transfected cells; host or cells: HEK293
T1 sequence (P62508 1-458): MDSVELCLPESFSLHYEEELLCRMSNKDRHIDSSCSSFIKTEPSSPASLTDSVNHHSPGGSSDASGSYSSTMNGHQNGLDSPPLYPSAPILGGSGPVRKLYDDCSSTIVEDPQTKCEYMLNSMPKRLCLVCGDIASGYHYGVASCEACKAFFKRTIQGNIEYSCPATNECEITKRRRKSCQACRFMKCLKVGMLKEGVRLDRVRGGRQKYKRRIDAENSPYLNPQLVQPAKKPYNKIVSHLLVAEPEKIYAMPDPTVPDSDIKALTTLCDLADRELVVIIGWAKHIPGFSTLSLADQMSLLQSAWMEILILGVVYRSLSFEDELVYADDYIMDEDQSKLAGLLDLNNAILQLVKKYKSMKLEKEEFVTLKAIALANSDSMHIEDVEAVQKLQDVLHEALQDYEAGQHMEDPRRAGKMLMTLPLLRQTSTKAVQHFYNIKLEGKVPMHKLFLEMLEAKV
Nature of the test: ERRE luciferase reporter assay in HEK293 cells transfected with pcDNA3.1 ERRγ. Particulars: 24 hours treatment, luciferase activity. More on the design: key to EC50 (ERRγ): ***<1 μM; **1-5 μM; *>5 μM; i.a. (inactive). In kind it is cell-based. As to the method:
(§1) HEK293 cells were maintained in Dulbecco's modified Eagles medium (DMEM) supplemented with 10% fetal bovine serum at 37° C. under 5% CO2. […] Cells were transfected with ERRE reporter construct and pcDNA3.1 ERRα or ERRγ. Twenty-four-hours post-transfection, the cells were treated with vehicle or compound (various concentrations) for 24 hours (4 wells per dose). Luciferase activity was measured using the One-Glo Tox luciferase reporter assay system (Promega) and […] were calculated using GraphPad Prism software.
A general note: A reporter such as luciferase makes a cellular process visible.

A further test concerns the target T2, ERRα (Homo sapiens, UniProt P11474).
T2 construct: expressed in transfected cells; host or cells: HEK293
T2 sequence (P11474 1-423): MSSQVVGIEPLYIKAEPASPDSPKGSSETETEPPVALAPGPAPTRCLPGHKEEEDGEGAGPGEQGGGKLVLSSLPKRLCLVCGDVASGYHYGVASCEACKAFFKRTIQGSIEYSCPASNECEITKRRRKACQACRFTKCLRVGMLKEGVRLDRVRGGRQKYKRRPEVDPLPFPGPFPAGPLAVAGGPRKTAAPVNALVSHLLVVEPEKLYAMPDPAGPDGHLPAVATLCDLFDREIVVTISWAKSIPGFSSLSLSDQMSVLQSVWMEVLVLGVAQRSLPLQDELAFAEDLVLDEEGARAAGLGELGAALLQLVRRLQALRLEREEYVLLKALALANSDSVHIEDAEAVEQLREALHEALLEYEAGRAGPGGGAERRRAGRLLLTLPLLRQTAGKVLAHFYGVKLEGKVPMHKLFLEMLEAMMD
Nature of the test: ERRE luciferase reporter assay in HEK293 cells transfected with pcDNA3.1 ERRα. In kind it is cell-based. Also on record: key to EC50 (ERRα): ***<1 μM; **1-5 μM; *>5 μM; i.a. (inactive). Particulars: 24 hours treatment, luciferase activity. The procedure:
as §1

`Oc1c(Br)cc(Br)cc1C1CC(c2cc(Br)cc(Br)c2)=NN1` (stereo not drawn) [Entry 43, 2,4-Dibromo-6-(3-(3,5-dibromophenyl)-4,5-dihydro-1H-pyrazol-5-yl)phenol]: on ERRγ, the “EC50 (ERRγ)” value is “i.a”. On ERRα, the “EC50 (ERRα)” value was “i.a”.

The term pEC50 denotes the negative decadic logarithm of the EC50, by convention in mol/L. On ERRγ, `COc1cccc(C2CC(c3ccc(C(F)(F)F)cc3)=NN2)c1O` (stereo not drawn) [Entry 64, 2-methoxy-6-(3-(4-(trifluoromethyl)phenyl)-4,5-dihydro-1H-pyrazol-5-yl)phenol] had a pEC50 of 5.30 to 6.00. Moreover, the “EC50 (ERRα)” value at ERRα is “i.a”.

In the case of `Cc1ccc(C2CC(c3cc(C(F)(F)F)cc(C(F)(F)F)c3)=NN2)c(O)c1` (stereo not drawn) [Entry 65, 2-(3-(3,5-bis(trifluoromethyl)phenyl)-4,5-dihydro-1H-pyrazol-5-yl)-5-methylphenol], the “EC50 (ERRγ)” value at ERRγ is on record as “i.a”. Further, the “EC50 (ERRα)” value at ERRα is reported as “i.a”.

For `Oc1ccccc1C1=NNC(c2c(O)cccc2Cl)C1` (stereo not drawn) [Entry 69, 3-chloro-2-(3-(2-hydroxyphenyl)-4,5-dihydro-1H-pyrazol-5-yl)phenol], on ERRγ, the “EC50 (ERRγ)” value was “i.a”. Further, the “EC50 (ERRα)” value at ERRα is “i.a”.

Turning to `Oc1ccccc1C1=NNC(c2c[nH]cn2)C1` (stereo not drawn) [Entry 109, 2-(5-(1H-imidazol-4-yl)-4,5-dihydro-1H-pyrazol-3-yl)phenol], the “EC50 (ERRγ)” value on ERRγ was “i.a”. Also, at ERRα, the “EC50 (ERRα)” value is given as “i.a”.

Turning to `CC(=O)N1N=C(c2ccccc2Cl)CC1c1ccccc1O` (stereo not drawn) [Entry 16, 1-(3-(2-Chlorophenyl)-5-(2-hydroxyphenyl)-4,5-dihydro-1H-pyrazol-1-yl)ethan-1-one], the “EC50 (ERRγ)” value at ERRγ is recorded as “i.a”. Further, at ERRα, the “EC50 (ERRα)” value is on record as “i.a”.

In the case of `Oc1cccc(C2=NNC(c3ccc(Br)cc3)C2)c1` (stereo not drawn) [Entry 108, 3-(5-(4-bromophenyl)-4,5-dihydro-1H-pyrazol-3-yl)phenol], the negative logarithm of the EC50 (pEC50) at ERRγ and on ERRα was 5.30 to 6.00 throughout.

For the molecule `Oc1cc(Br)ccc1C1CC(c2ccc(Br)cc2)=NN1` (stereo not drawn) [Entry 118, 5-bromo-2-(3-(4-bromophenyl)-4,5-dihydro-1H-pyrazol-5-yl)phenol], on ERRγ, the “EC50 (ERRγ)” value was “i.a”. For the same molecule, the “EC50 (ERRα)” value on ERRα is listed as “i.a”.

As to `Oc1cccc(C2=NNC(c3ccccc3O)C2)c1` (stereo not drawn) [Entry 96, 2-(3-(3-hydroxyphenyl)-4,5-dihydro-1H-pyrazol-5-yl)phenol], the pEC50 at ERRγ was less than 5.30; on ERRα, 5.30 to 6.00.

On to `Oc1ccccc1C1CC(c2ccc(F)cc2)=NN1` (stereo not drawn) [Entry 46, 2-(3-(4-Fluorophenyl)-4,5-dihydro-1H-pyrazol-5-yl)phenol], for which the pEC50 is less than 5.30 at ERRγ and 5.30 to 6.00 on ERRα.

For `CC(=O)N1N=C(c2ccc(Br)cc2)CC1c1ccccc1O` (stereo not drawn) [Entry 12, 1-(3-(4-Bromophenyl)-5-(2-hydroxyphenyl)-4,5-dihydro-1H-pyrazol-1-yl)ethan-1-one], the “EC50 (ERRγ)” value on ERRγ is recorded as “i.a”. The “EC50 (ERRα)” value at ERRα is “i.a”.

For the molecule `CC(C)(C)c1cc(C2CC(c3ccc(Br)cc3)=NN2)c(O)c(C(C)(C)C)c1` (stereo not drawn) [Entry 115, 2-(3-(4-bromophenyl)-4,5-dihydro-1H-pyrazol-5-yl)-4,6-di-tert-butylphenol], at ERRγ, the “EC50 (ERRγ)” value is “i.a”. For the same molecule, the “EC50 (ERRα)” value on ERRα was “i.a”.

As for `Fc1ccc(C2=NNC(c3ccc4ccccc4c3)C2)cc1` (stereo not drawn) [Entry 91, 3-(4-fluorophenyl)-5-(naphthalen-2-yl)-4,5-dihydro-1H-pyrazole], at ERRγ, the “EC50 (ERRγ)” value is given as “i.a”. At ERRα, the “EC50 (ERRα)” value was “i.a”.

Take `Oc1ccccc1C1CC(c2ccc(OC(F)(F)F)cc2)=NN1` (stereo not drawn) [Entry 41, 2-(3-(4-(Trifluoromethoxy)phenyl)-4,5-dihydro-1H-pyrazol-5-yl)phenol]: the pEC50 at ERRγ and on ERRα was greater than 6.00 each time.

In the case of `Oc1ccc(C2CC(c3ccccc3O)=NN2)cc1` (stereo not drawn) [Entry 67, 2-(5-(4-hydroxyphenyl)-4,5-dihydro-1H-pyrazol-3-yl)phenol], on ERRγ, the pEC50 is less than 5.30. For the same molecule, on ERRα, the “EC50 (ERRα)” value is given as “i.a”.

On to `Clc1ccccc1C1=NNC(c2ccc3ccccc3c2)C1` (stereo not drawn) [Entry 101, 3-(2-chlorophenyl)-5-(naphthalen-2-yl)-4,5-dihydro-1H-pyrazole], for which the pEC50 at ERRγ and on ERRα was greater than 6.00 each time.

With `COc1ccccc1C1=NNC(c2cccc(Cl)c2O)C1` (stereo not drawn) [Entry 60, 2-chloro-6-(3-(2-methoxyphenyl)-4,5-dihydro-1H-pyrazol-5-yl)phenol], the “EC50 (ERRγ)” value on ERRγ is “i.a”. The “EC50 (ERRα)” value at ERRα was “i.a”.

As to `Oc1ccccc1C1CC(c2cccc(F)c2)=NN1` (stereo not drawn) [Entry 31, 2-(3-(3-Fluorophenyl)-4,5-dihydro-1H-pyrazol-5-yl)phenol], the pEC50 at ERRγ is less than 5.30; on ERRα it was 5.30 to 6.00.

For the molecule `CC(=O)N1N=C(c2cccc(C)c2)CC1c1ccccc1O` (stereo not drawn) [Entry 14, 1-(5-(2-Hydroxyphenyl)-3-(m-tolyl)-4,5-dihydro-1H-pyrazol-1-yl)ethan-1-one], on ERRγ, the “EC50 (ERRγ)” value is recorded as “i.a”. The “EC50 (ERRα)” value at ERRα is reported as “i.a”.

In the case of `Clc1ccc(C2CC(c3ccccc3Br)=NN2)cc1Cl` (stereo not drawn) [Entry 111, 3-(2-bromophenyl)-5-(3,4-dichlorophenyl)-4,5-dihydro-1H-pyrazole], at ERRγ, the “EC50 (ERRγ)” value is given as “i.a”. Moreover, the “EC50 (ERRα)” value at ERRα is “i.a”.

For the molecule `Cc1ccc(C2CC(c3ccccc3)=NN2)c(O)c1` (stereo not drawn) [Entry 38, 5-Methyl-2-(3-phenyl-4,5-dihydro-1H-pyrazol-5-yl)phenol], the pEC50 on ERRγ and on ERRα was 5.30 to 6.00 each time.

For the molecule `Oc1cccc(C2CC(c3cccc(F)c3)=NN2)c1` (stereo not drawn) [Entry 78, 3-(3-(3-fluorophenyl)-4,5-dihydro-1H-pyrazol-5-yl)phenol], the “EC50 (ERRγ)” value at ERRγ is given as “i.a”. The molecule also had a pEC50 at ERRα of 5.30 to 6.00.

Consider `FC(F)(F)c1cccc(C2=NNC(c3ccc4ccccc4c3)C2)c1` (stereo not drawn) [Entry 83, 5-(naphthalen-2-yl)-3-(3-(trifluoromethyl)phenyl)-4,5-dihydro-1H-pyrazole], for which, at ERRγ, the “EC50 (ERRγ)” value is listed as “i.a”. Moreover, the “EC50 (ERRα)” value at ERRα is “i.a”.

As to `Oc1ccccc1C1CC(c2ccc(Cl)cc2)=NN1` (stereo not drawn) [Entry 47, 2-(3-(4-Chlorophenyl)-4,5-dihydro-1H-pyrazol-5-yl)phenol], the negative logarithm of the EC50 (pEC50) on ERRγ is 5.30 to 6.00; at ERRα it was less than 5.30.

For `Oc1ccccc1C1CC(c2ccc(Cl)cc2Cl)=NN1` (stereo not drawn) [Entry 48, 2-(3-(2,4-Dichlorophenyl)-4,5-dihydro-1H-pyrazol-5-yl)phenol], the “EC50 (ERRγ)” value at ERRγ is given as “i.a”. Moreover, the “EC50 (ERRα)” value on ERRα was “i.a”.

For the molecule `CC(=O)N1N=C(c2ccccc2O)CC1c1ccccc1O` (stereo not drawn) [Entry 15, 1-(3,5-bis(2-hydroxyphenyl)-4,5-dihydro-1H-pyrazol-1-yl)ethan-1-one], on ERRγ, the “EC50 (ERRγ)” value was “i.a”. In addition, at ERRα, the “EC50 (ERRα)” value is recorded as “i.a”.

With `Clc1ccc(C2=NNC(c3ccc(Br)cc3)C2)cc1` (stereo not drawn) [Entry 112, 5-(4-bromophenyl)-3-(4-chlorophenyl)-4,5-dihydro-1H-pyrazole], the “EC50 (ERRγ)” value on ERRγ is “i.a”. For the same molecule, on ERRα, the “EC50 (ERRα)” value is “i.a”.

Turning to `Oc1cccc(C2CC(c3ccc(F)cc3)=NN2)c1` (stereo not drawn) [Entry 87, 3-(3-(4-fluorophenyl)-4,5-dihydro-1H-pyrazol-5-yl)phenol], the pEC50 on ERRγ was less than 5.30; on ERRα, 5.30 to 6.00.

With `Oc1c(Cl)cccc1C1CC(c2ccc(Br)cc2)=NN1` (stereo not drawn) [Entry 45, 2-(3-(4-Bromophenyl)-4,5-dihydro-1H-pyrazol-5-yl)-6-chlorophenol], the pEC50 at ERRγ and at ERRα was 5.30 to 6.00 each time.

For the molecule `Cc1ccc(C2=NNC(c3ccccc3O)C2)cc1` (stereo not drawn) [Entry 28, 2-(3-(p-tolyl)-4,5-dihydro-1H-pyrazol-5-yl)phenol], the “EC50 (ERRγ)” value at ERRγ is “i.a”. Moreover, at ERRα, the “EC50 (ERRα)” value is “i.a”.

Consider `Oc1ccccc1C1=NNC(c2ccc(Cl)cc2)C1` (stereo not drawn) [Entry 66, 2-(5-(4-chlorophenyl)-4,5-dihydro-1H-pyrazol-3-yl)phenol], for which the pEC50 on ERRγ and on ERRα was greater than 6.00 in each case.

Regarding `Oc1ccccc1C1CC(c2ccccc2)=NN1` (stereo not drawn) [Entry 34, 2-(3-Phenyl-4,5-dihydro-1H-pyrazol-5-yl)phenol], the pEC50 was 5.30 to 6.00 on ERRγ and less than 5.30 at ERRα.

For the molecule `Oc1ccccc1C1CC(c2cccs2)=NN1` (stereo not drawn) [Entry 17, 2-(3-(Thiophen-2-yl)-4,5-dihydro-1H-pyrazol-5-yl)phenol], the pEC50 at ERRγ and at ERRα was less than 5.30 throughout.
